Results reported in PubChem BioAssay AID1996.
In brackets after ≈: the same amount, converted by molar mass.

Settings: buffer; pH 7.4; 200.0 µM
In the case of `C=C(C)c1cccc(C(C)(C)NC(=O)NCc2cccnc2)c1`, the solubility kinetic is reported as greater than 46.4 µg/mL.
With `CCc1cc(C(=O)O)c(NC(=O)/C=C/c2ccc(OC)cc2)s1` the solubility kinetic was greater than 49.7 µg/mL.
Work on `CC(C)S(=O)(=O)c1cnc(-c2cccnc2)nc1N` yielded a solubility kinetic of 37.7 µg/mL (≈ 135 µM).
Molecule `O=C(O)c1cc([N+](=O)[O-])c(Sc2nc3ccccc3[nH]2)c([N+](=O)[O-])c1` has a solubility kinetic greater than 54 µg/mL.
With `Cc1ccc(NC(=O)CC2NCCN(Cc3ccccc3)C2=O)cc1` (stereo not given) the solubility kinetic was 43.6 µg/mL (≈ 129 µM).
For `COC(=O)/C(=C\c1ccc(O)cc1)c1nc2ccccc2[nH]1`, the solubility kinetic was 39.6 µg/mL (≈ 135 µM).
`COc1cc(C2NC(=O)CCC2[N+](=O)[O-])cc(OC)c1OC` (stereo not given) showed a solubility kinetic greater than 46.5 µg/mL.
With `CC(Cc1ccccc1)N1C(=O)c2ccccc2C1=O` (stereo not given) the solubility kinetic was 10.6 µg/mL (≈ 40 µM).
In the case of `CC(NC(=O)c1c(O)c2ccccc2[nH]c1=O)c1ccccc1` (stereo not given), the solubility kinetic is reported as less than 0.3 µg/mL.
Molecule `CCN1C(=O)Cc2cc(S(=O)(=O)NCCc3ccccc3)ccc21` has a solubility kinetic of 32.9 µg/mL (≈ 95.5 µM).
With `O=C(O)c1ccccc1/C=N/NC(=S)NCc1ccccc1` the solubility kinetic was greater than 47 µg/mL.
Work on `COC(=O)c1sccc1NC(=O)c1cccc(Cl)c1` yielded a solubility kinetic of less than 0.6 µg/mL.
Molecule `Cc1cc(/C=C(\C#N)C(=O)NCc2ccccc2)cc(C)c1O` has a solubility kinetic of less than 0.3 µg/mL.
Molecule `CCc1ccccc1N1CC(C(=O)N2Cc3ccccc3CC2C(N)=O)CC1=O` (stereo not given) has a solubility kinetic greater than 58.7 µg/mL.
Molecule `CC1Cc2ccccc2N1CC(=O)NC(=O)NC1CCCC1` (stereo not given) has a solubility kinetic of 6.9 µg/mL (≈ 22.9 µM).
In the case of `COC(=O)c1ccc(-c2noc(CN3CCCC(CNC(C)=O)C3)n2)cc1` (stereo not given), the solubility kinetic is reported as 43.3 µg/mL (≈ 116 µM).
With `CCCCN(CC)Cc1c(O)ccc2c3c(c(=O)oc12)CCC3` the solubility kinetic was 44 µg/mL (≈ 139 µM).
For `Cc1ccsc1C(=O)OCC(=O)NC1CCCC1`, the solubility kinetic was greater than 40.1 µg/mL.
Work on `O=C(c1cccc(S(=O)(=O)N2CCCc3ccccc32)c1)N1CCN(c2ccccc2)CC1` yielded a solubility kinetic of 3.6 µg/mL (≈ 7.8 µM).
`O=C(O)C1CC(=O)N(c2ccc(OCc3ccc(Br)cc3)cc2)C1` (stereo not given) gave a solubility kinetic greater than 58.5 µg/mL.
In the case of `CCNC(=S)N1CCn2cccc2C1c1cccnc1` (stereo not given), the solubility kinetic is reported as 41 µg/mL (≈ 143 µM).
Molecule `COc1ccc(NC(=O)c2ccc3[nH]c(C)c(C)c3c2)cc1` has a solubility kinetic of 3.6 µg/mL (≈ 12.2 µM).
In the case of `CCOC(=O)N1CCC(NS(=O)(=O)c2ccc(C#N)cc2)CC1`, the solubility kinetic is reported as greater than 50.6 µg/mL.
In the case of `CC(NC(=O)Nc1ccc(F)cc1)c1ccc2c(c1)OCO2` (stereo not given), the solubility kinetic is reported as 3.4 µg/mL (≈ 11.2 µM).
With `Cc1ccc(NC(=S)NCCc2ccccc2)nc1` the solubility kinetic was less than 0.2 µg/mL.
In the case of `CCCn1nc(Oc2nc(N(C)C)nc(N(C)C)n2)ccc1=O`, the solubility kinetic is reported as greater than 47.9 µg/mL.
`CC(=O)c1cc(C#N)c(SCC(=O)Nc2nccs2)nc1C` showed a solubility kinetic of 0.7 µg/mL (≈ 2.11 µM).
Work on `Cc1cc(C(=O)OCC(=O)NC2CCC(C)CC2)c(C)o1` (stereo not given) yielded a solubility kinetic of 11.6 µg/mL (≈ 39.5 µM).
Molecule `COc1ccc(NC(=O)C2CCCNC2=O)cc1` (stereo not given) has a solubility kinetic greater than 37.2 µg/mL.
`CC(C)(C)NC(=O)N1CCCN(c2ccc(C(F)(F)F)cn2)CC1` showed a solubility kinetic greater than 51.7 µg/mL.
`Nc1nccnc1C(=O)OCC(=O)NC1CCCc2ccccc21` (stereo not given) showed a solubility kinetic of 44.5 µg/mL (≈ 136 µM).
Work on `CCCCNC(=S)N1CCC(Cc2ccccc2)CC1` yielded a solubility kinetic of 6.2 µg/mL (≈ 21.3 µM).
Molecule `O=[N+]([O-])c1cc([N+](=O)[O-])c2nonc2c1Nc1ccccc1O` has a solubility kinetic greater than 47.6 µg/mL.
For `COc1cc(C(=O)OCC(=O)Nc2ccc(S(=O)(=O)NC3=NCCCCC3)cc2)cc(OC)c1OC`, the solubility kinetic was 73.5 µg/mL (≈ 141 µM).
For `CC1CCCCN1C(=O)c1ccc(C(=O)c2ccccc2)cc1` (stereo not given), the solubility kinetic was greater than 46.1 µg/mL.
For `Cc1nc([N+](=O)[O-])c(C(=O)OCc2ccccc2)n1C`, the solubility kinetic was 37.6 µg/mL (≈ 137 µM).
`COc1cc(/C=C(/C#N)C(=O)NCCCc2ccccc2)ccc1OCC(=O)O` gave a solubility kinetic of 37.9 µg/mL (≈ 96.1 µM).
`COc1ccc(CC(=S)NCCc2ccccc2)cc1` gave a solubility kinetic of 13 µg/mL (≈ 45.5 µM).
For `CCc1noc(C)c1C(=O)Nc1cccc2ncccc12`, the solubility kinetic was greater than 42.2 µg/mL.
With `O=C(COc1ccc(F)cc1)N1CCC(Cc2ccccc2)CC1` the solubility kinetic was 18.8 µg/mL (≈ 57.4 µM).
In the case of `CCC(C)[C@H](NC(=O)NC1CCCc2ccccc21)C(=O)OC` (stereo not given in full), the solubility kinetic is reported as 22 µg/mL (≈ 69.1 µM).
For `O=C(COC(=O)c1cccs1)Nc1ccccc1Cl`, the solubility kinetic was 2.3 µg/mL (≈ 7.78 µM).
Molecule `CC(C)c1ccccc1NC(=O)C1CC(=O)N(C2CCCC2)C1` (stereo not given) has a solubility kinetic greater than 47.2 µg/mL.
With `Cc1nc(-c2ccc(C(=O)N3CCCC3)cc2)cs1` the solubility kinetic was greater than 40.9 µg/mL.
Molecule `CC(NC(=O)c1ccc2ccccc2n1)c1ccccc1` (stereo not given) has a solubility kinetic of 18.9 µg/mL (≈ 68.4 µM).
Work on `Cc1ccc(C(=O)C2CCN(S(=O)(=O)c3c(C)noc3C)CC2)cc1` yielded a solubility kinetic of 13.6 µg/mL (≈ 37.5 µM).
With `Cc1onc(-c2ccccc2)c1C(=O)N1CCCC(C(F)(F)F)C1` (stereo not given) the solubility kinetic was 42.7 µg/mL (≈ 126 µM).
In the case of `COc1ccc(N2CCN(CC(=O)Nc3ccc(C)cc3)CC2)cc1`, the solubility kinetic is reported as 46.8 µg/mL (≈ 138 µM).
With `CCc1noc(C)c1C(=O)OCC(=O)NC(C)c1ccccc1` (stereo not given) the solubility kinetic was greater than 47.5 µg/mL.
Work on `CCCCCN1CC(O)=C(c2nc3ccccc3[nH]2)C1=N` yielded a solubility kinetic of 1.1 µg/mL (≈ 3.87 µM).
`CCOC(=O)C1CCN(C(=O)COC(=O)/C=C/c2ccc([N+](=O)[O-])cc2)CC1` gave a solubility kinetic of 18.7 µg/mL (≈ 47.9 µM).
Work on `O=C(Cc1ccc(Cl)cc1)NCCc1cnc[nH]1` yielded a solubility kinetic greater than 39.6 µg/mL.
In the case of `CCNCC(O)c1cccc(O)c1` (stereo not given), the solubility kinetic is reported as 18.9 µg/mL (≈ 104 µM).
Molecule `N/C(=N\OC(=O)C(c1ccccc1)c1ccccc1)c1ccncc1` has a solubility kinetic of 47.5 µg/mL (≈ 143 µM).
For `CCN1CCN(c2nc(Nc3ccc(OC)cc3)nc(N)c2[N+](=O)[O-])CC1`, the solubility kinetic was 49.6 µg/mL (≈ 133 µM).
Molecule `NC(=O)COc1ccc2oc(=O)cc(-c3cc4ccccc4o3)c2c1` has a solubility kinetic of 1 µg/mL (≈ 2.98 µM).
`Cc1nc(N)c(Br)c(C)c1Br` showed a solubility kinetic of 6.2 µg/mL (≈ 22.1 µM).
For `CCC1CN(C(=O)NCc2ccc(C)cc2)c2cc(C)ccc2O1` (stereo not given), the solubility kinetic was 0.5 µg/mL (≈ 1.54 µM).
Work on `CCCCCNC(=O)C1c2ccccc2Oc2ccccc21` yielded a solubility kinetic of less than 0.6 µg/mL.
Work on `CC(C)CCN(CCC(C)C)C(=O)Cc1c(O)c2ccccc2[nH]c1=O` yielded a solubility kinetic of 2.7 µg/mL (≈ 7.53 µM).
In the case of `Cn1c(O)c(C=Nc2ccc(Br)cc2)c(=O)n(C)c1=O`, the solubility kinetic is reported as 1.2 µg/mL (≈ 3.55 µM).
`Cc1cccc(C(=O)NCC(=O)NC(C)CCc2ccccc2)c1` (stereo not given) gave a solubility kinetic of 40.8 µg/mL (≈ 126 µM).
With `CC(CC(=O)Nc1nccs1)c1ccccc1` (stereo not given) the solubility kinetic was 32.5 µg/mL (≈ 132 µM).
`O=C(c1ccc2ccccc2c1)N1CCCC1` showed a solubility kinetic of 19.7 µg/mL (≈ 87.4 µM).
For `O=C(NC1CCCCC1)c1cc(-c2ccc(O)cc2)on1`, the solubility kinetic was less than 0.3 µg/mL.
Work on `COc1ccc(S(=O)(=O)Nc2ccc(C)cn2)cc1` yielded a solubility kinetic of 25.4 µg/mL (≈ 91.3 µM).
Molecule `O=C(O)C1CCCN(S(=O)(=O)c2ccccc2[N+](=O)[O-])C1` (stereo not given) has a solubility kinetic of 36.5 µg/mL (≈ 116 µM).
`Cc1nc(NC(=O)COC(=O)CCc2ccccc2)c(Cl)cc1Cl` showed a solubility kinetic of 21.8 µg/mL (≈ 59.4 µM).
`O=C(NCc1ccncc1)NC12CC3CC(CC(C3)C1)C2` gave a solubility kinetic of 41.3 µg/mL (≈ 145 µM).
Work on `COc1cccc(NC(=S)N(CCN2CCCCC2)Cc2ccco2)c1` yielded a solubility kinetic of 47.3 µg/mL (≈ 127 µM).
In the case of `CCNC(=S)NNC(=O)c1nn(C)c(C)c1Cl`, the solubility kinetic is reported as greater than 41.4 µg/mL.
In the case of `NC(=S)N(c1ccccc1)c1ccccc1`, the solubility kinetic is reported as greater than 34.2 µg/mL.
In the case of `CCOc1ccc(N2C(=O)Cc3ccccc3C2=O)cc1`, the solubility kinetic is reported as 26.9 µg/mL (≈ 95.6 µM).
With `O=C(NCCOCc1ccccc1)C(c1ccccc1)c1ccccc1` the solubility kinetic was 23.3 µg/mL (≈ 67.4 µM).
`O=S(=O)(c1ccc(Cl)cc1)N1CCc2ccccc21` gave a solubility kinetic of 6.1 µg/mL (≈ 20.8 µM).
Work on `CC(C)C(OC(=O)c1cccs1)C(=O)NCc1ccc(F)cc1` (stereo not given) yielded a solubility kinetic greater than 50.3 µg/mL.
`CCCCCCOC(=O)Cc1c(C)nc(N)[nH]c1=O` gave a solubility kinetic greater than 40.1 µg/mL.
With `CCOC(=O)/C(C#N)=C/C=C1\C=Cc2ccccc2N1CC` the solubility kinetic was 0.7 µg/mL (≈ 2.38 µM).
With `CC(C)Oc1ccc(CC2(CCc3ccncc3)C(=O)NC(=O)NC2=O)cc1` the solubility kinetic was 7.7 µg/mL (≈ 20.2 µM).
`CCCCCCCc1c(O)nc(SCCN(C)C)[nH]c1=O.Cl` gave a solubility kinetic greater than 52.5 µg/mL.
`COc1ccccc1C(=O)Nc1onc(C)c1C#N` showed a solubility kinetic greater than 38.6 µg/mL.
With `O=C(O)C1CC=CCC1C(=O)NCCCCc1ccccc1` (stereo not given) the solubility kinetic was greater than 45.2 µg/mL.
`CC(C)(C)c1cc(CCC(=O)NCc2cccnc2)cc(C(C)(C)C)c1O` showed a solubility kinetic of 36.5 µg/mL (≈ 99 µM).
Work on `Cc1c(Cl)cccc1NC(=O)CNC(=O)C1CC(=O)N(C2CCCC2)C1` (stereo not given) yielded a solubility kinetic greater than 56.7 µg/mL.
For `CCn1c(CNC(=O)c2ccccc2F)cc2ccccc21`, the solubility kinetic was 2 µg/mL (≈ 6.75 µM).
